Patent US20100111965A1, “COMBINATION THERAPY” (FUSION ANTIBODIES LIMITED, priority 2006, published 2010)

Tested on: HCT116 cells
Test: MTT assay, HCT116 cell proliferation
Assay type: cell-based, human
Settings: siRNA 10 nM, CPT-11 3.5 μM, 48 hr, compared to untreated, mock, control siRNA
Method: FIG. 8 illustrates HCT116 cell proliferation following AREG/HB-EGF silencing by siRNA and/or Chemotherapy treatment. Cells were transfected with AREG siRNA (10 nM), HB-EGF siRNA (10 nM) or a control siRNA (10 nM). […] Cell proliferation was analysed by MTT assay 48 hr after transfection/chemotherapy
FIG. 28 illustrates HCT116 cell proliferation after treatment with AREG antibody. Cell proliferation was analysed by MTT assay 48 hr after treatment.
FIG. 30 illustrates HCT116 cell proliferation after treatment with AREG antibody. Cell proliferation was analysed by MTT assay 48 hr after treatment.
FIG. 31 illustrates HCT116 cell proliferation after treatment with AREG antibody. Cell proliferation was analysed by MTT assay 48 hr after treatment
FIG. 33 illustrates HCT116 cell proliferation following HB-EGF silencing by siRNA and/or treatment with Anti AREG antibodies (6E11 1E92D8 & 6E11 1E9 106). Cells were transfected with HB-EGF siRNA (50 nM) or a control siRNA (50 nM). Cell proliferation was analysed by MTT assay 72 hr after transfection. […]
Cell viability was assessed by 3-(4,5-dimethylthiazol-2-yl)-2,5-diphenyltetrazolium bromide (MTT, Sigma) assay (Mosmann, T. 1983. J. Immunol. Methods 65:55-63). […] Cell viability was determined by reading the absorbance of each well at 570 nm using a microplate reader (Tecan Sunrise, Biorad, UK).

**Q.** How did the “effect on cell viability (MTT)” value turn out when CCc1c2c(nc3ccc(OC(=O)N4CCC(N5CCCCC5)CC4)cc13)-c1cc3c(c(=O)n1C2)COC(=O)[C@]3(O)CC [CPT-11, irinotecan] was run?
**A.** The value was “no significant effect”.
